The assay concerns A2780 cells. Briefly: chemotherapy-dependent RNA degradation (RNA integrity number, Agilent 2100 Bioanalyzer) in cultured A2780 cells. It counts as cell-based. The conditions noted are these: for change in RNA integrity at low concentrations: low (micromolar) concentrations; for effect on RNA integrity (in words): up to 40 μM; for concentration at which reductions in RNA integrity are induced: range tested 2.5-40 μM. The method, then: Before starting RNA isolation, an appropriate volume of buffer RLT is prepared by adding β-mercaptoethanol to buffer RLT in a ratio of 10 μl for every 1 ml of solution. RLT buffer is stable for a month after addition of β-ME. […] This precipitate was redissolved by warming at 30° C. and then placing the solution at room temperature. Aliquots of 0.5 ml RLT buffer (with β-ME) were placed in Eppendorf microfuge tubes prior to RNA isolation procedures. […] The resulting lysate is passed at least 5 times through a 20-gauge needle (0.9 mm diameter) fitted to an RNase-free syringe to shear associated genomic DNA. The sheared lysate is then transferred to a microcentrifuge tube and centrifuged at maximum speed for 3 minutes, with transfer of the supernatant to a new tube. One volume of 70% ethanol (500 μl) is added to the homogenized lysate, and the sample mixed well by pipetting. If some volume of the lysate is lost during homogenization, the volume of ethanol is adjusted accordingly. […] Up to 700 μl of the sample is then applied to an RNeasy mini column placed in a 2 ml collection tube, including any precipitate that may have formed. […] Any remaining lysate is applied to the column and the column centrifuged as described above, discarding the flow-through. Buffer RW1 (700 μl) is then added to the RNeasy column in a 2 ml microfuge tube to wash the column free of unbound lysate components. […] The RNeasy column is placed into a new 2 ml microfuge tube and 500 μl of RPE buffer is added to wash the column. After centrifugation for 30 seconds at ≥8000×g (≥10,000 rpm) to remove the wash buffer, two identical washes of the column in RPE buffer are performed. This buffer is supplied as a concentrate, and must be diluted with 4 volumes of ethanol (100%) prior to use. Any residual liquid associated with the column is then removed by centrifugation at full speed for 1 minute. […] After leaving the column at room temperature for 1 minute, the column is centrifuged for 1 min at full speed to collect the eluted RNA. To obtain a higher concentration and complete elution of the RNA from column, a second elution step was performed by reapplying the eluate to the column and centrifuging a second time.
This document includes a detailed description on setting up the assay equipment, preparing and running the RNA Nanochips, and analysis of the capillary electrophoretic data using the Agilent […] Bioanalyzer and its associated “Expert software”. It is important that all “Essential Measurement Practices” described in the document are followed. RNA 6000 “Nanochips” and associated solutions are obtained in RNA 6000 Nano kits that can be purchased from Agilent Technologies (Mississauga, ON). RNA Nanochips are manufactured by Caliper Life Sciences (Hopkinton, Mass.). The sizes of the rRNAs, and the concentration of RNA in a given sample are determined by extrapolation from a standard curve of reference RNAs provided in the RNA 6000 NANO kits. All data from the Bioanalyzer runs were stored both as PDF and XAD files. The Agilent 2100 Expert software was used to obtain all data from the capillary electrophoresis runs, including the RNA quality and quantity for a given RNA preparation.

[1] abbreviates: 40 μM (each drug), same experiment, FIG. 2.
Where [2] appears, read: 40 μM (each drug), same experiment, from 9.40±0.12 units, FIG. 2.
Where [3] appears, read: A2780 cells, 40 μM, 24 h, FIG. 1.

For `N.N.[Cl][Pt][Cl]` [cisplatin], the “effect on RNA integrity at highest concentration” value (A2780 cells, 40 μM, 24 h) was “substantial and statistically significant reductions”. For the same compound, the “change in RNA integrity at low concentrations” value (A2780 cells, 24 h) was “no effect”.

As to `CC(=O)O[C@@]12CO[C@@H]1C[C@H](O)[C@@]1(C)C(=O)[C@H](O)C3=C(C)[C@@H](OC(=O)[C@H](O)[C@@H](NC(=O)OC(C)(C)C)c4ccccc4)C[C@@](O)([C@@H](OC(=O)c4ccccc4)[C@H]21)C3(C)C` [docetaxel], the “RNA integrity after treatment” value under setting [1] is listed as 8.67±0.42 units. Further, the “reduction in RNA integrity” value was found to be 7.8% under setting [2] and 18.8% under setting [3]. The “change in RNA integrity at low concentrations” value (A2780 cells, 24 h) is on record as “little change”. Also, for the setting “A2780 cells”, the “effect on RNA integrity (in words)” value is “minimal reduction”.

For the compound `O=c1[nH]cc(F)c(=O)[nH]1` [5-FI-uracil, 5-fluorouracil], the “concentration at which reductions in RNA integrity are induced” value (“concentration at which reductions” for short) (A2780 cells, 24 h) is at least 20 µM.

As to `COc1cccc2c1C(=O)c1c(O)c3c(c(O)c1C2=O)C[C@@](O)(C(=O)CO)C[C@@H]3O[C@H]1C[C@H](N)[C@H](O)[C@H](C)O1` [doxorubicin], the “reduction in RNA integrity” value under setting [3] was “up to 20.0%”. For the same compound, the “concentration at which reductions” value (A2780 cells, 24 h) was determined as 2.5 µM. Under “A2780 cells”, the “effect on RNA integrity (in words)” value is recorded as “significant reductions”.

Consider `COc1cc([C@@H]2c3cc4c(cc3[C@@H](O[C@@H]3O[C@@H]5CO[C@@H](C)O[C@H]5[C@H](O)[C@H]3O)[C@H]3COC(=O)[C@H]23)OCO4)cc(OC)c1O` [etoposide], for which, where the note is “A2780 cells, 40 μM, 24 h”, the “effect on RNA integrity at highest concentration” value is given as “no effect”. The “effect on RNA integrity (in words)” value (A2780 cells) is given as “unable to affect RNA integrity”.

As to `CC(=O)O[C@H]1C(=O)[C@@]2(C)[C@H]([C@H](OC(=O)c3ccccc3)[C@]3(O)C[C@H](OC(=O)[C@H](O)[C@@H](NC(=O)c4ccccc4)c4ccccc4)C(C)=C1C3(C)C)[C@]1(OC(C)=O)CO[C@@H]1C[C@@H]2O` [paclitaxel], the “reduction in RNA integrity” value by setting is: (A2780 cells, 20 μM, 24 h, FIG. 1) 52.5%; under setting [3], 75.8%. For the same compound, where the note is “A2780 cells”, the “effect on RNA integrity (in words)” value is “greatest reduction”.

For the compound `COc1cccc2c1C(=O)c1c(O)c3c(c(O)c1C2=O)C[C@@](O)(C(=O)CO)C[C@@H]3O[C@H]1C[C@H](N)[C@@H](O)[C@H](C)O1` [epirubicin], the “RNA integrity after treatment” value under setting [1] is given as 5.87±1.74 units. Besides, under setting [2], the “reduction in RNA integrity” value stood at 37.7%. Besides, the “dose-dependent reduction in RNA quality (up to)” value (A2780 cells, 2.5-40 μM, 24 h, FIG. 1) was “up to 29.2%”. Besides, the “concentration at which reductions” value (A2780 cells, 24 h) was determined as 2.5 µM.

With `CC[C@]1(O)C[C@@H]2CN(CCc3c([nH]c4ccccc34)[C@@](C(=O)OC)(c3cc4c(cc3OC)N(C)[C@H]3[C@@](O)(C(=O)OC)[C@H](OC(C)=O)[C@]5(CC)C=CCN6CC[C@]43[C@@H]65)C2)C1` [vinblastine], the “concentration at which reductions” value (A2780 cells, 24 h) amounted to 2.5 µM. For the same compound, under “A2780 cells, lowest concentration tested 2.5 μM”, the “reduction of RNA integrity” value was “almost two”.

These data come from patent publication US10590463B2, “Diagnostic methods and kits for monitoring response to chemotherapy in ovarian cancer” (RNA Disgnostics Inc., priority 2011, dated 2020).
